Data taken from PMC8147254, “Efflux at the Blood-Brain Barrier Reduces the Cerebral Exposure to Ochratoxin A, Ochratoxin α, Citrinin and Dihydrocitrinone” (Toxins, 2021).
Where two headings read alike, the source gives them in different places.

Assays:
[1] = 50 German volunteers, dried blood spot; cited from earlier work
[2] = 289 µg OTA/kg body weight/48 h for up to 6 weeks; cited from earlier work
[3] = 13 German volunteers; cited from earlier work
[4] = system: PBCEC; assay type: cell-based, porcine; details: 1 µM apical, 48 h, referred to t = 0 h, n = 9 (negative control 88 ± 4%)
Experimental: In order to study the barrier integrity PBCEC were incubated with 1 µM OTA, OTα, CIT and DHCIT in the apical compartment (blood side) of Transwell® filter inserts for 48 h. The TEER values as well as the electrical capacitance (cCL) were monitored by cellular impedance spectroscopy (Figure 4A,B). As a negative control the permeability of […] was measured after 48 h. Sucrose is not transported by any cellular transport protein and represents a marker for an intact BBB.
For barrier integrity, TEER values were monitored using a cellZscope® cellular impedance spectrometer (nanoAnalytics, Münster, Germany). […]. The detailed protocols can be found in the Supplementary Materials. […]
6.1. Cellular impedance spectroscopy
To monitor the barrier integrity during all transfer studies, the transendothelial electrical resistance (TEER) was measured with a cellZscope® cellular impedance spectrometer (nanoAnalytics, Münster, Germany) using a module suitable for 24 Transwell® filter inserts. After the mycotoxins were added to the cell culture medium, TEER was analyzed until the end of the experiment (48 h). The waiting time after each run was set to 10 min, resulting in 60 scans per 48 h.
The results were normalized to the TEER values of the first impedance spectrum of each well. Data processing was performed using the cellZscope 1.3.4 software (nanoAnalytics, Münster, Germany).

[5] = system: PBCEC monolayer; assay type: in vitro ADME, porcine; details: 200 nM in both compartments; for effect of probenecid on the enrichment in the apical compartment: 100 µM probenecid; for concentration in the apical compartment after 48 h / concentration in the basolateral compartment after 48 h: n = 3; for mycotoxin amounts extracted from the cells and filter membranes, of the initially applied amount: data not shown
Experimental: To analyse any active transport the mycotoxins were applied in the apical and basolateral compartments in equimolar concentrations of 200 nM. In a second set of experiments, 100 µM probenecid were added to both compartments 1 h before mycotoxin incubation in order to elucidate the effects of the OAT transport proteins. […] The mycotoxin concentrations were analysed as described above by HPLC-MS/MS.
For active transport studies, the cells were treated as described for transfer studies, with the only difference being that the compounds were applied on the apical and basolateral side in equimolar 200 nM concentrations (see Supplementary Materials). To investigate whether probenecid has an effect on the active transfer of the mycotoxins via OAT, 100 µM probenecid was applied to the apical and basolateral compartment 1 h before mycotoxin application and maintained until the end of the experiment.
Afterwards, the column was re-equilibrated for 4 min. An injection volume of 5 µL was used.
5. Active transport studies
To study the active transfer properties, the cells were treated in the same manner as for the normal transfer studies, but the mycotoxins were incubated on the apical and basolateral side in equimolar 200 nM concentrations as previously described. To investigate whether probenecid has an effect on the active transfer of the mycotoxins via OAT, 100 μM probenecid was applied to the apical and basolateral compartment 1 h before mycotoxin application and maintained until the end […]
after applying the mycotoxins using HPLC‐MS/MS. […]

[6] = 100 µM probenecid from 1 h before

SMILES	mean whole blood concentration of OTA [1]	concentration in brain tissue [2]	mean OTA concentration in blood plasma [3]	relative TEER value after 48 h [4]	effect of probenecid on the enrichment in the apical compartment [5]	concentration in the apical compartment after 48 h [5, 6]	concentration in the basolateral compartment after 48 h [5, 6]	concentration in the apical compartment after 48 h ([5]; without probenecid)	concentration in the basolateral compartment after 48 h ([5]; without probenecid)	mycotoxin amounts extracted from the cells and filter membranes, of the initially applied amount [5]	mean total OTα level in blood plasma [3]
C[C@@H]1Cc2c(Cl)cc(C(=O)N[C@@H](Cc3ccccc3)C(=O)O)c(O)c2C(=O)O1 [OTA, Ochratoxin A]	0.21 ± 0.066 ng/mL	up to 94 ± 16 ng/g	0.25 ± 0.03 ng/mL	62 ± 10%	minor almost negligible effect	292 ± 28 nM	224 ± 6 nM	275 ± 32 nM	206 ± 4 nM	below 1%	–
Cc1c(O)c(C(=O)O)c(O)c2c1[C@H](C)[C@@H](C)OC2=O [DHCIT, dihydrocitrinone]	–	–	–	79 ± 9%	–	250 ± 15 nM	178 ± 15 nM	278 ± 7 nM	186 ± 6 nM	below 1%	–
C[C@@H]1Cc2c(Cl)cc(C(=O)O)c(O)c2C(=O)O1 [OTα, ochratoxin α]	–	–	–	92 ± 16%	weak	236 ± 16 nM	187 ± 1 nM	268 ± 10 nM	194 ± 5 nM	below 1%	2.99 ± 2.24 ng/mL
CC1=C2C(=CO[C@H](C)[C@H]2C)C(O)=C(C(=O)O)C1=O [CIT, Citrinin]	–	–	–	81 ± 10%	some effect of probenecid cannot be dismissed	205 ± 21 nM	180 ± 12 nM	266 ± 18 nM	182 ± 1 nM	below 1%	–
